Test results: ChEMBL document CHEMBL1641557, “3-(Pyridin-2-yl-ethynyl)benzamide metabotropic glutamate receptor 5 negative allosteric modulators: hit to lead studies” (Bioorg Med Chem Lett, 2011)
Each block holds one compound with its values, some of them ahead of it.

Columns and labels:
[1] = Half life in rat liver microsomes; format: ADME, Microsome
[2] = Half life in Beagle dog at 2 mg/kg, iv; format: ADME, organism-based, Canis lupus familiaris; design: dose 2 mg/kg, route intravenous; conditions: in vivo
[3] = Half life in Swiss Webster mouse at 2 mg/kg, iv; format: ADME, organism-based; design: dose 2 mg/kg, route intravenous; conditions: in vivo
[4] = Half life in Sprague-Dawley rat at 2 mg/kg, iv; format: ADME, organism-based; design: dose 2 mg/kg, route intravenous; conditions: in vivo
[5] = Volume of distribution at steady state in Beagle dog at 2 mg/kg, iv; format: ADME, organism-based, Canis lupus familiaris; design: dose 2 mg/kg, route intravenous; conditions: in vivo, read-out: Vdss
[6] = Volume of distribution at steady state in Sprague-Dawley rat at 2 mg/kg, iv; format: ADME, organism-based; design: dose 2 mg/kg, route intravenous; conditions: in vivo, read-out: Vdss
[7] = Volume of distribution at steady state in Swiss Webster mouse at 2 mg/kg, iv; format: ADME, organism-based; design: dose 2 mg/kg, route intravenous; conditions: in vivo, read-out: Vdss
[8] = Clearance in Beagle dog at 2 mg/kg, iv; format: ADME, organism-based, Canis lupus familiaris; design: dose 2 mg/kg, route intravenous; conditions: in vivo
[9] = Clearance in Sprague-Dawley rat at 2 mg/kg, iv; format: ADME, organism-based; design: dose 2 mg/kg, route intravenous; conditions: in vivo
[10] = Clearance in Swiss Webster mouse at 2 mg/kg, iv; format: ADME, organism-based; design: dose 2 mg/kg, route intravenous; conditions: in vivo
[11] = Cmax in Swiss Webster mouse at 10 mg/kg, po; format: ADME, organism-based; design: dose 10 mg/kg, route oral; conditions: in vivo
[12] = Cmax in Sprague-Dawley rat at 10 mg/kg, po; format: ADME, organism-based; design: dose 10 mg/kg, route oral; conditions: in vivo
[13] = Cmax in Beagle dog at 10 mg/kg, po; format: ADME, organism-based, Canis lupus familiaris; design: dose 10 mg/kg, route oral; conditions: in vivo
[14] = AUClast in Swiss Webster mouse at 10 mg/kg, po; format: ADME, organism-based; design: time 0 - last, dose 10 mg/kg, route oral; conditions: plasma
[15] = AUClast in Sprague-Dawley rat at 10 mg/kg, po; format: ADME, organism-based; design: time 0 - last, dose 10 mg/kg, route oral; conditions: plasma
[16] = AUClast in Beagle dog at 10 mg/kg, po; format: ADME, organism-based, Canis lupus familiaris; design: time 0 - last, dose 10 mg/kg, route oral; conditions: plasma
[17] = Oral bioavailability in Swiss Webster mouse at 10 mg/kg; format: ADME, organism-based; conditions: in vivo
[18] = Oral bioavailability in Sprague-Dawley rat at 10 mg/kg; format: ADME, organism-based; conditions: in vivo
[19] = Oral bioavailability in Beagle dog at 10 mg/kg; format: ADME, organism-based, Canis lupus familiaris; conditions: in vivo
[20] = Ratio of drug level in brain to plasma in Swiss Webster mouse at 10 mg/kg, po; format: ADME, organism-based; design: dose 10 mg/kg, route oral
[21] = Ratio of drug level in brain to plasma in Sprague-Dawley rat at 10 mg/kg, po; format: ADME, organism-based; design: dose 10 mg/kg, route oral
[22] = Cmax in Swiss Webster mouse brain at 10 mg/kg, po; format: ADME, organism-based; design: dose 10 mg/kg, route oral
[23] = Cmax in Sprague-Dawley brain rat at 10 mg/kg, po; format: ADME, organism-based; design: dose 10 mg/kg, route oral

half-life [1]: 3 min
SMILES: O=C(c1cccc(C#Cc2ccccc2)c1)N1CCN(c2ccccn2)CC1

half-life [1]: 3 min
SMILES: COc1cccc(C#Cc2cccc(C(=O)N3CCN(c4ccccn4)CC3)c2)c1

half-life [1]: 2 min
SMILES: Nc1cccc(C#Cc2cccc(C(=O)N3CCN(c4ccccn4)CC3)c2)c1

half-life [1]: 4 min
SMILES: COc1ccc(C#Cc2cccc(C(=O)N3CCN(c4ccccn4)CC3)c2)cc1

half-life [1]: 5 min
SMILES: Cc1ccc(C#Cc2cccc(C(=O)N3CCN(c4ccccn4)CC3)c2)cc1

half-life [1]: 4 min
SMILES: O=C(c1cccc(C#CCc2ccccc2)c1)N1CCN(c2ccccn2)CC1

half-life [1]: 5 min
SMILES: O=C(c1cccc(C#Cc2ccccn2)c1)N1CCN(c2ccccn2)CC1

half-life [1]: 4 min
SMILES: O=C(c1cccc(C#Cc2ccccc2)c1)N1CCN(c2cnccn2)CC1

half-life [1]: 3 min
SMILES: O=C(c1cccc(C#Cc2ccccc2)c1)N1CCN(c2ccncn2)CC1

half-life [1]: 13 min
SMILES: Cc1ccc(N2CCN(C(=O)c3cccc(C#Cc4ccccc4)c3)CC2)nc1

half-life [1]: 13 min
SMILES: COc1ccc(C(=O)N2CCN(c3ccccn3)CC2)cc1C#Cc1ccccc1

half-life [1]: 5 min
SMILES: COc1ccc(C(=O)N2CCN(c3cnccn3)CC2)cc1C#Cc1ccccc1

half-life [1]: 21 min
SMILES: COc1ccc(C(=O)N2CCN(c3ccncn3)CC2)cc1C#Cc1ccccc1

half-life [1]: 16 min
SMILES: COc1ccc(C(=O)N2CCN(c3ccc(C)cn3)CC2)cc1C#Cc1ccccc1

half-life [1]: 13 min
SMILES: Cc1ccc(C(=O)N2CCN(c3ccccn3)CC2)cc1C#Cc1ccccc1

half-life [1]: 9 min
SMILES: Cc1ccc(C(=O)N2CCN(c3cnccn3)CC2)cc1C#Cc1ccccc1

half-life [1]: 7 min
SMILES: COc1ccc(C(=O)N2CCN(c3ccncn3)CC2)cc1C#Cc1cccc(Cl)c1

half-life [2]: 126 min | half-life [3]: 12 min | half-life [4]: 60 min | Vd [5]: 0.5 L/kg | Vd [6]: 0.9 L/kg | Vd [7]: 3.2 L/kg | clearance [8]: 3 mL/min/kg | clearance [9]: 12 mL/min/kg | clearance [10]: 121 mL/min/kg | half-life [1]: 23 min | Cmax [11]: 3.5 µM | Cmax [12]: 11.9 µM | Cmax [13]: 16.4 µM | AUC(0-t) [14]: 519 ng·h/mL | AUC(0-t) [15]: 13400 ng·h/mL | AUC(0-t) [16]: 47100 ng·h/mL | bioavailability [17]: 20% | bioavailability [18]: 85% | bioavailability [19]: 80% | Kp [20]: 0.31 | Kp [21]: 0.15 | Cmax [22]: 1.09 µM | Cmax [23]: 1.79 µM
SMILES: COc1ccc(C(=O)N2CCN(c3ccccn3)CC2)cc1C#Cc1ccccn1

half-life [1]: 18 min
SMILES: COc1ccc(C(=O)N2CCN(c3ccncn3)CC2)cc1C#Cc1ccccn1

half-life [1]: 11 min
SMILES: COc1ccc(C(=O)N2CCN(c3ccccn3)CC2)cc1C#Cc1cccc(C)n1

half-life [1]: 15 min
SMILES: COc1ccc(C(=O)N2CCN(c3ccccn3)CC2)cc1C#Cc1nccs1

half-life [1]: > 30 min
SMILES: COc1ccc(C(=O)N2CCN(c3ccc(C)cn3)CC2)cc1C#Cc1ccccn1
